Activity calls are given as the source filed them.

Assay [1] concerns the target Epidermal growth factor receptor (Homo sapiens, UniProt P00533).
The target in assay [2] is T1, Eukaryotic translation initiation factor 5B (Homo sapiens, UniProt O60841).
T1 sequence (O60841 whole entry): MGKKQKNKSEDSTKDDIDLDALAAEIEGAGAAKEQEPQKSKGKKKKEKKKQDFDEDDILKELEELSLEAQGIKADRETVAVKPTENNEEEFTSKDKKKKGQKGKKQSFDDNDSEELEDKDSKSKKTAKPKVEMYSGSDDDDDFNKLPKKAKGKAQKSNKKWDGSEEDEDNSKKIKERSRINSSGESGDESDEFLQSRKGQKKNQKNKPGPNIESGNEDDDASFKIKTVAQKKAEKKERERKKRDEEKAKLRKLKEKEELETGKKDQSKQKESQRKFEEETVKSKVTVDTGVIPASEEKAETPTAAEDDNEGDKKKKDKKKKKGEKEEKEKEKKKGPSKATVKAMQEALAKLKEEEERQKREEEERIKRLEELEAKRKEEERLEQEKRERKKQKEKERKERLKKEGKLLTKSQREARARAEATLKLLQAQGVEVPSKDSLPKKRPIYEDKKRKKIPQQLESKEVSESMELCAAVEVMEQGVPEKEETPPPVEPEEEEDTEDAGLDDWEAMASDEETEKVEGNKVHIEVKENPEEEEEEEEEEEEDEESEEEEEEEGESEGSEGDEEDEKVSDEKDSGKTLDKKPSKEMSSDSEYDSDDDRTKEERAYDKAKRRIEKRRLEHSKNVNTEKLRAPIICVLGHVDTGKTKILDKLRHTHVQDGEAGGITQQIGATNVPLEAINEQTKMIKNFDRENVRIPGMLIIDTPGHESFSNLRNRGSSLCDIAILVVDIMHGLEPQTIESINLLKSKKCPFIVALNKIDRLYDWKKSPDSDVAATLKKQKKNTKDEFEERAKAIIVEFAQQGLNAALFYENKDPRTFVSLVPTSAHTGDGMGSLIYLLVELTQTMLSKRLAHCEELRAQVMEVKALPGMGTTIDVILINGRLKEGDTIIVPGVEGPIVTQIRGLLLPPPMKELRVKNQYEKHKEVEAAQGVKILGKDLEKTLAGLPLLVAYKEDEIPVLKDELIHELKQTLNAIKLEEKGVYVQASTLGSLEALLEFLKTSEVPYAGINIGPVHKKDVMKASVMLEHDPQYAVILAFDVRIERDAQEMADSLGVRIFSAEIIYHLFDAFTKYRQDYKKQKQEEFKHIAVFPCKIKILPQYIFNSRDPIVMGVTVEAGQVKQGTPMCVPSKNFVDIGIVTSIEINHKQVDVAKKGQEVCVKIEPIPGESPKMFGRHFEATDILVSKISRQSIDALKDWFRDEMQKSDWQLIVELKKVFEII

Assay [3] addresses Ephrin type-A receptor 7 (Homo sapiens, UniProt Q15375).
For assay [4], the target named is T2, Phosphatidylinositol 5-phosphate 4-kinase type-2 alpha (Homo sapiens, UniProt P48426).
T2 sequence (P48426 whole entry): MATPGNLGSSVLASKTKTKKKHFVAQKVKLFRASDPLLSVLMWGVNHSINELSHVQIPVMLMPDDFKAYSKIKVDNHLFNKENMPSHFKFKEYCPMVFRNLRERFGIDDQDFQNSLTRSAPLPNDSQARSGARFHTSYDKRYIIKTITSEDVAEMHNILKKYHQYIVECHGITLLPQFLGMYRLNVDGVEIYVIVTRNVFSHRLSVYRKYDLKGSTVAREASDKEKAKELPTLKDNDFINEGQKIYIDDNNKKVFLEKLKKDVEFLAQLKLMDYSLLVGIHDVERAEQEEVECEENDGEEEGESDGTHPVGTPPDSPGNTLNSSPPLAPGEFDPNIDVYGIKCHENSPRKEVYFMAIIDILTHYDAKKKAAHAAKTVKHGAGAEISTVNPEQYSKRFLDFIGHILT

Assay [5] has as its target Serine/threonine-protein kinase 38-like (Homo sapiens, UniProt Q9Y2H1).
Assay [6] concerns the target T3, Dual specificity protein kinase TTK (Homo sapiens, UniProt P33981).
T3 sequence (P33981 whole entry): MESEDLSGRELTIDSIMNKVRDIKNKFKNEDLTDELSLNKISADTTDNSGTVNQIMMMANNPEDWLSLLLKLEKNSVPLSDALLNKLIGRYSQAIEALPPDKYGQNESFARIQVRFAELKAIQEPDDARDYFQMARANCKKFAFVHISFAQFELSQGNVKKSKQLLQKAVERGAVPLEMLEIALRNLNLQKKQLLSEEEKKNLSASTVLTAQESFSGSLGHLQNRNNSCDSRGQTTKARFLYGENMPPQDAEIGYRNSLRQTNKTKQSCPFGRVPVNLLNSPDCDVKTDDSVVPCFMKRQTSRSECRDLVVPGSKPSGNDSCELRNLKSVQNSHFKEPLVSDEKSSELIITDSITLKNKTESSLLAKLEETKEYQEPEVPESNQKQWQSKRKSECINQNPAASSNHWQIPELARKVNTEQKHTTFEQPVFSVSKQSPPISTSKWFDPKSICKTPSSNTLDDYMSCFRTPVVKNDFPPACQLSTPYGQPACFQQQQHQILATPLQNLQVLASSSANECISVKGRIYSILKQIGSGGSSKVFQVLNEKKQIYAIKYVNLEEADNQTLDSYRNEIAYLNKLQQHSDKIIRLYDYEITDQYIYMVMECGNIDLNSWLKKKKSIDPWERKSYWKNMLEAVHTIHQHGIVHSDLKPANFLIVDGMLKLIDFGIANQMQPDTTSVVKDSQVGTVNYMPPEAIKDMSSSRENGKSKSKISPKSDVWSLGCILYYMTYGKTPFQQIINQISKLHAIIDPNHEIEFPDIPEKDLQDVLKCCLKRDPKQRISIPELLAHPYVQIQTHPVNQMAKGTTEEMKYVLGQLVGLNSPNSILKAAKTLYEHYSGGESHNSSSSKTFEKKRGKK

The target in assay [7] is Misshapen-like kinase 1 (Homo sapiens, UniProt Q8N4C8).
Assay [8] has as its target Membrane-associated progesterone receptor component 1 (Homo sapiens, UniProt O00264).
Further: in the data inactive means no Kd found up to 30 µM.

Sequence of Serine/threonine-protein kinase 38-like (Q9Y2H1 whole entry): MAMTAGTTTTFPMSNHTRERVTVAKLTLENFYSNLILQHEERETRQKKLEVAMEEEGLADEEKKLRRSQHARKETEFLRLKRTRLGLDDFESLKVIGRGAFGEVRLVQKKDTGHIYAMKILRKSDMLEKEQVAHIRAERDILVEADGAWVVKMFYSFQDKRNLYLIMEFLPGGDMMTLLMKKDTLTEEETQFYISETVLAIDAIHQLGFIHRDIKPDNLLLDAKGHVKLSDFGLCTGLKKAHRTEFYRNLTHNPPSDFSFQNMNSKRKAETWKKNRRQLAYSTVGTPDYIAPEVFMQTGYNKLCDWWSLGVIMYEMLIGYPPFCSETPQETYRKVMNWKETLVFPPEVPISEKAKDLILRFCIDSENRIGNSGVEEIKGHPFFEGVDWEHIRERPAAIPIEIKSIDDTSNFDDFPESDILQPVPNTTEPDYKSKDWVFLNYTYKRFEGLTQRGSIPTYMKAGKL
Sequence of Epidermal growth factor receptor (P00533 whole entry): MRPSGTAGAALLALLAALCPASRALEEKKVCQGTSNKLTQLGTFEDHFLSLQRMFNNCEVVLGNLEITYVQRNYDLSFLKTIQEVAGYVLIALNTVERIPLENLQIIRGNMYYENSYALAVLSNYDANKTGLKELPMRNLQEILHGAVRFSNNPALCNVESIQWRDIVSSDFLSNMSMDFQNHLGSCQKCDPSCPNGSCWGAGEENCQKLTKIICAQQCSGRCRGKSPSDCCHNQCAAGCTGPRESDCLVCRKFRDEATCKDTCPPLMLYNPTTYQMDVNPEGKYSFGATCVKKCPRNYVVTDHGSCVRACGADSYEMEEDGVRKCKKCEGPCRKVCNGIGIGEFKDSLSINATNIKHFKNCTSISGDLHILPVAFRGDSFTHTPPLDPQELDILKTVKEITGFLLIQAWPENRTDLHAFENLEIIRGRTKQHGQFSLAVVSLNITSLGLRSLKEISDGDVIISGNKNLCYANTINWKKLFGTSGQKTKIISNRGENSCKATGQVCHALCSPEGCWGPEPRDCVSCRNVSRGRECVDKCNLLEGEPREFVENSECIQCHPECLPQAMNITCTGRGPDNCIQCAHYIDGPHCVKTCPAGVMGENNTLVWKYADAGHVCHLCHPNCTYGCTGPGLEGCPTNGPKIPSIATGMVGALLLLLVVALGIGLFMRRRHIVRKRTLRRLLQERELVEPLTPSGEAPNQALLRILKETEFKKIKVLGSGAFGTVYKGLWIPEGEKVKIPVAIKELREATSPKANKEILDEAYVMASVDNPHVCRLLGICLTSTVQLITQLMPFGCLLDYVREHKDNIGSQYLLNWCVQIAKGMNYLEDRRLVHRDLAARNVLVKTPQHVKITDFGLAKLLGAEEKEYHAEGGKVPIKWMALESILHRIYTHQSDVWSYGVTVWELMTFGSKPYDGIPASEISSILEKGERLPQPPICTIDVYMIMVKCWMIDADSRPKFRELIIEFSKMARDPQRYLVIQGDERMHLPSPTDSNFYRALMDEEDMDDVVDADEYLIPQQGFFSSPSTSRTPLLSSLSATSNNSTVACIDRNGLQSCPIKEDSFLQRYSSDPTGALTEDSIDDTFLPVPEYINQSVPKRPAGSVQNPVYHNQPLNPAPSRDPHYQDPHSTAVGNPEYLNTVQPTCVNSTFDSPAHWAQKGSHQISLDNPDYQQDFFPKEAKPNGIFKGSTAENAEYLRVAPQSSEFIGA
Sequence of Ephrin type-A receptor 7 (Q15375 whole entry): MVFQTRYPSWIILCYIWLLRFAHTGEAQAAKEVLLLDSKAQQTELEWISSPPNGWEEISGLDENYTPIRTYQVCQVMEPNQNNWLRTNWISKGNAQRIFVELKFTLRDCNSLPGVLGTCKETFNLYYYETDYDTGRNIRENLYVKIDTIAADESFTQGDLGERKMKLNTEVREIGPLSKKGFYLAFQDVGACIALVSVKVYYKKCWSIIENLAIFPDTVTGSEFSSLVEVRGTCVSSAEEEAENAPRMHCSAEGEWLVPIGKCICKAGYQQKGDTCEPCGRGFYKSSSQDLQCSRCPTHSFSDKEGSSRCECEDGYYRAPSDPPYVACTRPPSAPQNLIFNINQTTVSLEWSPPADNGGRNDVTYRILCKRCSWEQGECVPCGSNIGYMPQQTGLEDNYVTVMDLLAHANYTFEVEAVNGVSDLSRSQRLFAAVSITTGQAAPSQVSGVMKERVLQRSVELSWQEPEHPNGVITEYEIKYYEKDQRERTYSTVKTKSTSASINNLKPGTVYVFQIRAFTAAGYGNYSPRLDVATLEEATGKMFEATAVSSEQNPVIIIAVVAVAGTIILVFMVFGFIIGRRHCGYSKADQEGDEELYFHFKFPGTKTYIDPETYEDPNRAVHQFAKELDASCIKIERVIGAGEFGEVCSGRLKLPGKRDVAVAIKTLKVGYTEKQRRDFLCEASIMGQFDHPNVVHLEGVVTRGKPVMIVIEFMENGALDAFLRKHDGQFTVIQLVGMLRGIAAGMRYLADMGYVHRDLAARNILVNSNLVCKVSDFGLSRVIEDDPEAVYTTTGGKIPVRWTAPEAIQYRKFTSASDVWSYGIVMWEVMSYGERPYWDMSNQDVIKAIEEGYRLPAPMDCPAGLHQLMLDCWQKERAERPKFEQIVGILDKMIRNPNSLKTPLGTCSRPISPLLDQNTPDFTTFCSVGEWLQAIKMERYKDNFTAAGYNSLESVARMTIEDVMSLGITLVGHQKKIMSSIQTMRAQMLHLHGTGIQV
Sequence of Misshapen-like kinase 1 (Q8N4C8 whole entry): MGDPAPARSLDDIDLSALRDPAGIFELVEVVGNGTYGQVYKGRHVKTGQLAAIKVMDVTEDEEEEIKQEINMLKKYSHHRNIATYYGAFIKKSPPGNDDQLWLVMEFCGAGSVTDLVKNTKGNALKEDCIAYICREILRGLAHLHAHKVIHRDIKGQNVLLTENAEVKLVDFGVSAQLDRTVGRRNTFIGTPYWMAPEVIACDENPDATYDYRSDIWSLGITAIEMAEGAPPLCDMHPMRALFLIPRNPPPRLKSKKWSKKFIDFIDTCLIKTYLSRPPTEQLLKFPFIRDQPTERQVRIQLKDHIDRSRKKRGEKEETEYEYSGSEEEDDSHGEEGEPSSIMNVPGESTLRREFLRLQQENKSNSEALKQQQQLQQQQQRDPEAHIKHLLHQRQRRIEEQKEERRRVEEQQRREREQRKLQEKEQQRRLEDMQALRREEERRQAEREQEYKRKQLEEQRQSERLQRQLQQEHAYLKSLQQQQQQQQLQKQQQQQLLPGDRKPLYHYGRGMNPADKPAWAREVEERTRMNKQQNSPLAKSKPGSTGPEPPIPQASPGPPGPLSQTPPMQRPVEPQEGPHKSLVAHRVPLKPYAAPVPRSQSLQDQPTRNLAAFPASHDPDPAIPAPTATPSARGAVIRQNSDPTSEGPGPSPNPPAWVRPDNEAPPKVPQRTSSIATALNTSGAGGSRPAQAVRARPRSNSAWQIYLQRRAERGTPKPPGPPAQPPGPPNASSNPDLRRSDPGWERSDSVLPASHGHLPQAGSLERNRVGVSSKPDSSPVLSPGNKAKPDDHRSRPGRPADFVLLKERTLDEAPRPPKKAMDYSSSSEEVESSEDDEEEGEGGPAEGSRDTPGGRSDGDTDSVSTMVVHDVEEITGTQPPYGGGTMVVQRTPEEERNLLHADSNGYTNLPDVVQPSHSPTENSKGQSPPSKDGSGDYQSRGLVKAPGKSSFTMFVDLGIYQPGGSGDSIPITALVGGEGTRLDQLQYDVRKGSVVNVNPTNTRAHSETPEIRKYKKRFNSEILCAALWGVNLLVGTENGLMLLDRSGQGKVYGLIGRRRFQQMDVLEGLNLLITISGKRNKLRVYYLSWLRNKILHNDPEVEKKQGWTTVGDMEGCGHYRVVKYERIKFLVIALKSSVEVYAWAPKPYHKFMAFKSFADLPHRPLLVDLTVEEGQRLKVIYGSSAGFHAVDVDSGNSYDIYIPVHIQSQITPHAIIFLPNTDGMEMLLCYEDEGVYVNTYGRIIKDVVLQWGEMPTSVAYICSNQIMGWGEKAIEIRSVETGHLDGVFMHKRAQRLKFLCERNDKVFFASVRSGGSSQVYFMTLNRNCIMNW
Sequence of Membrane-associated progesterone receptor component 1 (O00264 whole entry): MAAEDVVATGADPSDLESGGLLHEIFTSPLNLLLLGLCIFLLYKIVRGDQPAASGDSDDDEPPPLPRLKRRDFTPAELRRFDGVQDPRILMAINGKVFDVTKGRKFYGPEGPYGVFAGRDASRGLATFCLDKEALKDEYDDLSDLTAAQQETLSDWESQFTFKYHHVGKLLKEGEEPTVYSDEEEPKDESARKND

Usually Kd stands for the free concentration of one partner at which half of the binding sites on the other are occupied at equilibrium, for simple one-to-one binding. Regarding `Cc1ccc(S(=O)(=O)Nc2nc3ccccc3nc2Nc2ccc3nsnc3c2)cc1`, the Kd in assay [1], in assay [2], in assay [3], in assay [4], in assay [5] and in assay [6] was > 30 µM (inactive) in each case.

Turning to `OCCn1cc(-c2cnc3nnn(Cc4ccc5ncccc5c4)c3n2)cn1` [PF-04217903], the Kd in assay [1], in assay [3], in assay [7], in assay [8], in assay [4] and in assay [5] was > 30 µM (inactive) in each case. Moreover, the Kd in assay [6] is > 30 µM (inactive).

For the compound `CNC(=O)CN1CCC(Oc2cc3c(Nc4cccc(Cl)c4F)ncnc3cc2OC)CC1` [SAPITINIB], the Kd in assay [2], in assay [3], in assay [7], in assay [8], in assay [4] and in assay [5] was > 30 µM (inactive) in each case. Further, the Kd in assay [6] is > 30 µM (inactive).

For `COC(=O)[C@@]1(O)C[C@H]2O[C@]1(C)n1c3ccccc3c3c4c(c5c6ccccc6n2c5c31)C(=O)NC4` [K-252A], the Kd in assay [1], in assay [2], in assay [3], in assay [7], in assay [8] and in assay [4] was > 30 µM (inactive) throughout. For the same compound, the figures for the Kd in assay [5] and in assay [6] were 2.14 µM (active) and 0.03 µM, respectively.

Take `COc1ccc(-c2ccc3c(N4CCOC[C@@H]4C)nc(N4CCOC[C@@H]4C)nc3n2)cc1CO` [AZD-8055]: the Kd in assay [1], in assay [2], in assay [3], in assay [7], in assay [8] and in assay [4] was > 30 µM (inactive) each time. In addition, the Kd in assay [5] and in assay [6] was > 30 µM (inactive) in each case.

Consider `O=C1NC(=O)/C(=C/c2ccc3nccc(-c4ccncc4)c3c2)S1` [GSK-1059615], for which the Kd in assay [1], in assay [3], in assay [7], in assay [8], in assay [4] and in assay [5] was > 30 µM (inactive) each time. Besides, the Kd in assay [6] is > 30 µM (inactive).

With `Cc1c(F)cc(C(=O)NC2CC2)cc1-c1ccc(C(=O)NCC(C)(C)C)cn1` [LOSMAPIMOD], the Kd in assay [1], in assay [2], in assay [3], in assay [7], in assay [4] and in assay [5] was > 30 µM (inactive) in each case. Besides, in assay [6], the Kd was > 30 µM (inactive).

Turning to `Cc1cc2c(F)c(Oc3ncnn4cc(OC[C@@H](C)OC(=O)[C@H](C)N)c(C)c34)ccc2[nH]1` [BRIVANIB ALANINATE], the Kd in assay [1], in assay [3], in assay [4], in assay [5] and in assay [6] was > 30 µM (inactive) in each case.

Turning to `C[C@@H]1CN(Cc2ccc(F)cc2)[C@@H](C)CN1C(=O)c1cc2c(C(=O)C(=O)N(C)C)cn(C)c2cc1Cl` [TALMAPIMOD], the Kd in assay [1], in assay [3], in assay [8], in assay [4], in assay [5] and in assay [6] was > 30 µM (inactive) throughout.

`CN1CCC(COc2cnc(-c3cccc(Cn4nc(-c5cccc(C#N)c5)ccc4=O)c3)nc2)CC1` [TEPOTINIB]: the Kd in assay [2], in assay [3], in assay [7], in assay [8], in assay [4] and in assay [5] was > 30 µM (inactive) each time. In addition, the Kd in assay [6] is > 30 µM (inactive).

As to `Cc1cc([C@@H](C)Nc2ccccc2C(=O)O)c2nc(N3CCOCC3)cc(=O)n2c1` [AZD-6482], the Kd in assay [1], in assay [2], in assay [3], in assay [8], in assay [5] and in assay [6] was > 30 µM (inactive) each time.

As to `O=c1sn(-c2cccc3ccccc23)c(=O)n1Cc1ccccc1` [TIDEGLUSIB], the Kd in assay [1], in assay [3], in assay [7], in assay [8], in assay [5] and in assay [6] was > 30 µM (inactive) throughout.

Turning to `CCN1CCN(Cc2ccc(-c3cc4c(N[C@H](C)c5ccccc5)ncnc4[nH]3)cc2)CC1` [AEE-788], the Kd in assay [2], in assay [3], in assay [5] and in assay [6] was > 30 µM (inactive) each time.

Regarding `Cc1ccc(NC(=O)c2ccc(CN3CC[C@H](N(C)C)C3)c(C(F)(F)F)c2)cc1Nc1nccc(-c2cncnc2)n1` [BAFETINIB], the Kd in assay [1], in assay [3], in assay [8], in assay [4], in assay [5] and in assay [6] was > 30 µM (inactive) in each case.

For `Cc1cc(-c2cc(O)ccc2Cl)cc2nnc(Nc3ccc(OCCN4CCCC4)cc3)nc12`, the Kd in assay [1], in assay [3], in assay [8], in assay [4], in assay [5] and in assay [6] was > 30 µM (inactive) in each case.

The values above are taken from ChEMBL document CHEMBL3991601, “The target landscape of clinical kinase drugs” (Science, 2017).
